# Results published in patent US9476087B2, “Methods and compounds for detecting beta-lactamase activity” (Nanyang Technological University, priority 2008, dated 2016).
# Tests used:
# [1] = system: CC(=O)NC1C(=O)N2C(C(=O)O)=C(CSc3ccc(CC(=O)NCCOCCOCCN)cc3)CSC12; assay: purified protein, by the assay type; details: other: 25° C., PBS pH 7.4, β-lactamase 5.0 nM, absorbance change at 650 nm
# Method: The kinetic measurements were carried out at 25° C. in PBS (phosphate buffered saline) buffer at pH 7.4. The absorbance change at 650 nm was measured by means of a UV spectrophotometer.
# The rate of enhancement in absorbance at 650 nm was applied to determine the kinetic properties of enzyme hydrolysis. The values of the kinetic parameters (Km and Kcat) were determined from the double-reciprocal plot of the hydrolysis rate versus substrate concentrations (Lineweaver-Burk plot, based on the Michaelis-Menten model).
# The kinetic experiments were carried out at 25° C. in PBS buffer with pH 7.4. The absorbance change at 650 nm was measured using a UV spectrophotometer. […] The rate of enhancement in absorbance at 650 nm was applied to determine the kinetic properties of enzyme hydrolysis. The 9 values of the kinetic parameters (Km and Kcat) were determined from the double-reciprocal plot of the hydrolysis rate versus substrate concentrations (Lineweaver-Burk plot).
# [2] = system: β-lactamase producing microorganisms; details: Hakimelahi et al. 2005; cited from earlier work
# [3] = system: clinical isolate K. pneumoniae (ATCC 700603); assay: Nitrocefin colorimetric assay in living bacteria; format: cell-based; details: nitrocefin 8 μM
# Method: (§1) FIG. 22 depicts a colorimetric measurement after mixing nitrocefin with different bacterial suspensions. 1: Nitrocefin solution (8 μM) only; 2: Nitrocefin (8 μM) mixed with wild type E. coli Bl21; 3: Nitrocefin (8 μM) mixed with β-lactam antibiotics resistant E. coli Bl21; 4: Nitrocefin (8 μM) mixed with clinical isolate K. pneumoniae (ATCC 700603) strains. […] There was no color difference between the Bla-encoded E. coli Bl21 and the K. pneumoniae strains.
# (§2) Bacterial cells (˜10^8 cfu/mL) were suspended in 1 ml of PBS buffer (pH 7.4) which contained substrates under the room temperature. Nitrocefin solution (from Merck) was incubated with bacteria for further enzyme interactions. The final concentration was maintained at 8 μM, which was the same as the gold nanoparticles based enzymatic assay. After 20 mins interaction and followed by centrifugation, supernatant was applied for colorimetric image. The color change with different bacterial suspensions is depicted in FIG. 22.
# wild type E. coli Bl21 = assay: Nitrocefin colorimetric assay in living bacteria; format: cell-based; details: nitrocefin 8 μM
# Method: as §1, §2
# [4] = system: β-lactam antibiotics resistant E. coli Bl21; assay: Nitrocefin colorimetric assay in living bacteria; format: cell-based; details: nitrocefin 8 μM
# Method: as §1, §2
compound,measurement,setting,value
β-lactamase (Escherichia coli),Km,[1],14.1 µM
same,kcat,[1],22.7 s⁻¹
"COC(=O)C1=C(C(=O)OC(Cl)(Cl)C(Cl)(Cl)OC(=O)C2=C(c3ccccc3)C[C@@H]3[C@@H](NC(=O)Cc4ccccc4)C(=O)N23)N2C(=O)[C@@H](NC(=O)Cc3ccccc3)[C@H]2C1 (relative stereo) [(5R,6S)-rel-7-oxo-6-[(phenylacetyl)amino]-1-azabicyclo[3.2.0]hept-2-ene-2,3-dicarboxylic acid 3-methyl 2-[1,1,2,2-tetrachloro-2-[[[(5R,6R)-7-oxo-3-phenyl-6-[(phenylacetyl)amino]-1-azabicyclo[3.2.0]hept-2-en-2-yl]carbonyl]oxy]ethyl]ester]",activity against β-lactamase producing microorganisms,[2],excellent activity
O=C(Cc1cccs1)N[C@@H]1C(=O)N2C(C(=O)O)=C(/C=C/c3ccc([N+](=O)[O-])cc3[N+](=O)[O-])CS[C@H]12 [nitrocefin],color change of nitrocefin solution,[3],color change from yellow to pink
same,color of nitrocefin solution,wild type E. coli Bl21,pink color was also detected
same,color change of nitrocefin solution,[4],color change from yellow to pink
